# Test results as given in PubChem BioAssay (NCI).
# “And” between values parts separate entries of the source, which are not always exact repeats. Identical values can stand only once.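 1) Cells in 96-well plates. 2) Compound, 48 h, 5 concentrations. 3) Linear interpolation between surrounding doses. 4) Unreached endpoint = highest concentration. At the GI50, growth is halved. Definition used: TGI = concentration required for complete inhibition of growth.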
# Columns and labels:
# Experiment in all cases: inhibition of tumour cell growth, NCI panel, 48 h
# IGROV1 ovarian = test system: IGROV1 ovarian
# HCT-116 colon = test system: HCT-116 colon
# MALME-3M melanoma = test system: MALME-3M melanoma
# OVCAR-3 ovarian = test system: OVCAR-3 ovarian
# A549 NSCLC = test system: A549 NSCLC
# SR leukemia = test system: SR leukemia
# DU-145 prostate = test system: DU-145 prostate
# HS 578T breast = test system: HS 578T breast
Structure (SMILES),GI50 (IGROV1 ovarian),TGI (IGROV1 ovarian),GI50 (HCT-116 colon),TGI (HCT-116 colon),GI50 (MALME-3M melanoma),TGI (MALME-3M melanoma),GI50 (OVCAR-3 ovarian),TGI (OVCAR-3 ovarian),GI50 (A549 NSCLC),TGI (A549 NSCLC),TGI (SR leukemia),TGI (DU-145 prostate),TGI (HS 578T breast),GI50 (SR leukemia),GI50 (DU-145 prostate),GI50 (HS 578T breast)
O=C([CH-]C(=O)c1ccccc1)c1ccccc1.[CH-]1CCCCC1.[CH-]1CCCCC1.[CH-]1CCCCC1.[Sn+4],11.8 µM,33.4 µM,6.3 µM,19.9 µM,8.75 µM,22.1 µM,5.89 µM,19.8 µM,15.5 µM,38.6 µM,–,–,–,–,–,–
O=C(/C=C\c1ccc([N+](=O)[O-])cc1)c1ccccc(=O)c1O,–,4.16 µM,–,2.35 µM,–,3.08 µM,–,14.4 µM,–,11.9 µM,> 100 µM,9.44 µM,36.8 µM,–,–,–
Cc1cc2c(cc1Cl)S/C(=C/C(=O)O)C(Nc1ccc3ncsc3c1)=NS2(=O)=O,31.9 µM,> 100 µM,9.93 µM,> 42.9 µM,> 35.3 µM,> 55.4 µM,14 µM,41.2 µM,> 25 µM,> 62 µM,77.9 µM,> 97.3 µM,> 40.9 µM,14.6 µM,21.2 µM,9.81 µM
CCCCCCCCCCCCCC[N+](C)(C)CCCCCCCCCCCCCC,–,–,–,–,–,–,3.58 µM,20.5 µM,–,–,9.96 µM,12.5 µM,24.8 µM,2.46 µM,3.42 µM,5.65 µM
COC12C=C/C(=C(/C(=O)OCc3ccccn3)C(=O)CCCCCCCCC3(OC)C=C/C(=C(/C(=O)OCc4ccccn4)C(=O)CCCCCCCC1)O3)O2,0.421 µM,3.73 µM,0.223 µM,0.47 µM,0.325 µM,1.38 µM,0.326 µM,1.1 µM,0.626 µM,3.49 µM,> 100 µM,1.87 µM,> 100 µM,0.364 µM,0.564 µM,0.783 µM
CC1=C(c2ccccc2)C(O)(c2ccccc2)C(C)C1=O (centres undefined),10.3 µM,> 100 µM,9.95 µM,> 100 µM,27.7 µM,> 100 µM,16.5 µM,> 100 µM,32.5 µM,> 100 µM,> 100 µM,> 100 µM,–,3.75 µM,27.2 µM,–
Cc1csc2[n+]1-c1ccccc1N(C(=O)Nc1ccccc1)C(C)C2 (centres undefined),80.7 µM,> 100 µM,16.5 µM,31.5 µM,–,–,> 100 µM,> 100 µM,36.6 µM,> 100 µM,–,–,> 100 µM,–,–,> 100 µM
CN(C)c1ccc2oc(=O)c3ccccc3c2c1,–,> 100 µM,–,> 100 µM,–,> 100 µM,–,> 100 µM,–,> 100 µM,> 100 µM,> 100 µM,92 µM,–,–,–
CC(C)(C)C1CCC2c3c([nH]c4ccccc34)C3C(=O)N(c4ccc(Cl)cc4)C(=O)C3C2C1 (centres undefined),> 100 µM,> 100 µM,65.3 µM and > 10 µM,> 100 µM,–,> 10 µM,30.3 µM and > 10 µM,> 100 µM,67 µM and > 10 µM,> 100 µM,39.5 µM and > 10 µM,> 100 µM,> 100 µM,–,> 100 µM,> 100 µM
